Assay results published in article PMC6835155, “Lessons from LIMK1 enzymology and their impact on inhibitor design” (Biochemical Journal, 2019).
Structures can show the parent of a compound that is named as a salt. Where two headings read alike, the source gives them in different places.

How the values were obtained:
LIMK1KD = target: T1, LIMK1KD (Homo sapiens, UniProt P53667); test: Differential (dynamic) scanning fluorimetry (DSF) assay, LIMK1KD; type: binding; conditions: 2 µM LIMK1KD, compound 10 µM, single shot; for ΔTm at 10 µM: read-out: TM Shift LIMK1 (K)
T1 construct: His6 (N, cleaved yes); made in house; host or cells: baculovirus; Sf9 for virus, TriEx insect cells for expression
T1 sequence (P53667 330-637): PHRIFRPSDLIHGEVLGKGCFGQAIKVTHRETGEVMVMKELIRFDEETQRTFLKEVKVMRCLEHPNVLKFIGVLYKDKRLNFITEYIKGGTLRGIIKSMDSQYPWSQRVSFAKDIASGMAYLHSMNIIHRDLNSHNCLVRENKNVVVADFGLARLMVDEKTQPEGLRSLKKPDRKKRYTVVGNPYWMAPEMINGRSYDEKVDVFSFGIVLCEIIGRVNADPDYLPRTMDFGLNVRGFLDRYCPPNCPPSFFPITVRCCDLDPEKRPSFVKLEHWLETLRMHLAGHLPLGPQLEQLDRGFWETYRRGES

LIMK2KD = target: T2, LIMK2KD (Homo sapiens, UniProt P53671); test: Differential (dynamic) scanning fluorimetry (DSF) assay, LIMK2KD; type: binding
T2 construct: The cDNA coding for LIMK2 residues 330 to 632 was PCR amplified; His6 (N, cleaved yes); made in house; host or cells: baculovirus; Sf9 for virus, TriEx insect cells for expression
T2 sequence (P53671 330-632): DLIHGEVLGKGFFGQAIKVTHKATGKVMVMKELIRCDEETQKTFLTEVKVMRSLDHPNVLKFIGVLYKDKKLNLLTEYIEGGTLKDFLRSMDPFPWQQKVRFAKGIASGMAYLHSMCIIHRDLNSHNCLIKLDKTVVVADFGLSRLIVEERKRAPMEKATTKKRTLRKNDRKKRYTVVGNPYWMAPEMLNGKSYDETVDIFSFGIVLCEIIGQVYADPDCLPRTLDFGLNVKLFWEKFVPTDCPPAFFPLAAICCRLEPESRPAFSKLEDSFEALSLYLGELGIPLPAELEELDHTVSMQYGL

[1] = LIMK2KD, compound 10 µM, single shot, read-out: TM Shift LIMK2 (K)
[2] = LIMK2KD, compound 10 µM, single shot
[3] = LIMK2KD, compound 10 µM, single shot, 10 µM

Compound | ΔTm at 10 µM (LIMK1KD) [°C] | ΔTm at 10 µM (LIMK2KD; [1]) [°C] | TM Shift LIMK1 (K) (LIMK1KD) | TM Shift LIMK2 (K) (LIMK2KD; [2]) | further results
CCOc1ccn(-c2ccc(F)cc2)c(=O)c1C(=O)Nc1ccc(Oc2ccnc(N)c2Cl)c(F)c1 [BMS-777607] | 3.8 | -0.2 |  |  | 
COc1cc2c(Nc3ccc(NC(=O)c4ccccc4)cc3)ncnc2cc1OCCCN1CCOCC1 [ZM 447439] |  |  | 0.1 | 0.8 | 
CCN1/C(=C/C(C)=O)Sc2ccc(OC)cc21 [TG003] |  |  | -1.0 | -1.2 | 
CN[C@@H]1C[C@H]2O[C@@](C)([C@@H]1OC)n1c3ccccc3c3c4c(c5c6ccccc6n2c5c31)C(=O)N[C@H]4O [UCN-01] |  |  | 1.2 | 0.7 | 
CS(=O)(=O)O.Cn1cc(C2=C(c3cn(CCCSC(=N)N)c4ccccc34)C(=O)NC2=O)c2ccccc21 [Ro 31-8220 Mesylate] |  |  | 1.6 | 1.2 | 
C[C@]12O[C@H](C[C@]1(O)CO)n1c3ccccc3c3c4c(c5c6ccccc6n2c5c31)CNC4=O [Lestaurtinib] | 5 |  |  |  | ΔTm at 10 µM (LIMK2KD; read-out: TM Shift LIMK2 (K), LIMK2KD, compound 10 µM, single shot): 2 °C
O=C(Nc1ccc(-c2ccnc(Nc3ccc(N4CCOCC4)cc3)n2)cc1)C1CCCN1 (stereo not drawn) [XL019] | 4 | 1.6 |  |  | 
N#CCNC(=O)c1ccc(-c2ccnc(Nc3ccc(N4CCOCC4)cc3)n2)cc1 [Momelotinib] |  |  | 6.3 |  | TM Shift LIMK2 (K) (LIMK2KD; [3]): 4.2 K
CC(=O)Nc1cccc(-n2c(=O)n(C3CC3)c(=O)c3c(Nc4ccc(I)cc4F)n(C)c(=O)c(C)c32)c1 [Trametinib (GSK1120212), Trametinib] | -0.2 | 0 |  |  | 
CC(C)(C)Cn1c(N)nc2ccc(-c3[nH]c(C(C)(C)C)nc3-c3ccc(F)cc3)nc21 [Ralimetinib] | 3.2 | 3.1 |  |  | 
COc1cc2ncnc(Nc3cccc(Cl)c3)c2cc1OC [AG-1478 (Tyrphostin AG-1478), Tyrphostin AG-1478] | 1.4 | -0.2 |  |  | 
COc1ccc(-c2cc3c(C)nc(N)nc3n([C@H]3CC[C@H](OCCO)CC3)c2=O)cn1 [PF-04691502] |  |  | 0.9 | 0.6 | 
NC(=O)c1ccc(N(C(N)=O)c2c(F)cccc2F)nc1-c1ccc(F)cc1F [VX-702] | 0.6 | -0.6 |  |  | 
CNC(=O)CN1CCC(Oc2cc3c(Nc4cccc(Cl)c4F)ncnc3cc2OC)CC1 [AZD8931 (Sapitinib), Sapitinib] | 0.9 | 0.6 |  |  | 
CCC(=O)Nc1cccc(Oc2nc(Nc3ccc(N4CCN(C)CC4)cc3OC)ncc2Cl)c1 [WZ4003] | 0.4 | -0.8 |  |  | 
CNC(=O)c1cc(COc2nnc(Nc3ccc(Cl)cc3)c3ccoc23)ccn1 [Telatinib] | -1.4 | 3.3 |  |  | 
CN(c1ncccc1CNc1nc(Nc2ccc3c(c2)CC(=O)N3)ncc1C(F)(F)F)S(C)(=O)=O [PF-562271] |  |  | -0.5 |  | TM Shift LIMK2 (K) (LIMK2KD; [3]): -0.7 K
N#C/C(=C(/N)Sc1ccc(N)cc1)c1ccccc1C(F)(F)F [SL-327] |  |  | 0.7 | 0.7 | 
Cc1ccc(NC(=O)c2ccc(CN3CC[C@H](N(C)C)C3)c(C(F)(F)F)c2)cc1Nc1nccc(-c2cncnc2)n1 [Bafetinib] | 2.5 | 1.1 |  |  | 

Compound | ΔTm at 10 µM (LIMK1KD) [°C] | ΔTm at 10 µM (LIMK2KD; [1]) [°C] | TM Shift LIMK1 (K) (LIMK1KD) | TM Shift LIMK2 (K) (LIMK2KD; [2]) | further results
O=c1cc(N2CCOCC2)oc2c1ccc1ccccc12 [NU7026] |  |  | -0.7 | 3.0 | 
CNC(=O)c1nn(C)c2c1C(C)(C)Cc1cnc(Nc3ccc(N4CCN(C)CC4)cc3)nc1-2 [Milciclib (PHA-848125), Milciclib] | 0.2 | 0.6 |  |  | 
COc1ccc(CNC(=O)Nc2ncc([N+](=O)[O-])s2)cc1 [AR-A014418] |  |  | 1.4 | 1.0 | 
CO[C@@H]1[C@H](N(C)C(=O)c2ccccc2)C[C@H]2O[C@]1(C)n1c3ccccc3c3c4c(c5c6ccccc6n2c5c31)C(=O)NC4 [Midostaurin] | 0.1 | 0 |  |  | 
COc1c(C)c(C(=O)c2ccc(N)c(C(=O)[O-])c2)n2ccccc12.[Na+] [SSR128129E] |  |  | -0.6 | 2.4 | 
Cc1cnc(NC(=O)Nc2cc(Br)c(C)cc2OC[C@@H]2CNCCO2)cn1 [LY2603618] |  |  | 0.1 |  | TM Shift LIMK2 (K) (LIMK2KD; [3]): 0.7 K
CO[C@@H](C(=O)N1Cc2n[nH]c(NC(=O)c3ccc(N4CCN(C)CC4)cc3)c2C1)c1ccccc1 [Danusertib (PHA-739358), Danusertib] | 5 | 1 |  |  | 
O=C(c1ccc(Nc2nccc(-c3cc4ccccc4s3)n2)cc1)N1CCC(N2CCCC2)CC1 [IKK-16 (IKK Inhibitor VII)] |  |  | 7.0 | 2.1 | 
CN[C@@H]1C[C@H]2O[C@@](C)([C@@H]1OC)n1c3ccccc3c3c4c(c5c6ccccc6n2c5c31)C(=O)NC4 [Staurosporine] | 5.1 |  |  |  | ΔTm at 10 µM (LIMK2KD; read-out: TM Shift LIMK2 (K)): 3.3 °C
CC(C)NC[C@@H](C(=O)N1CCN(c2ncnc3c2[C@H](C)C[C@H]3O)CC1)c1ccc(Cl)cc1 [GDC-0068] |  |  | -0.4 |  | TM Shift LIMK2 (K) (LIMK2KD; [3]): -0.4 K
N#Cc1c(O)c2c(-c3ccc(-c4ccccc4O)cc3)csc2[nH]c1=O [A-769662] |  |  | 0.9 | 2.4 | 
CCc1cc(Nc2nccc(-c3c(-c4ccc(OC)c(C(=O)Nc5c(F)cccc5F)c4)nc4ccccn34)n2)c(OC)cc1N1CCC(N2CCN(S(C)(=O)=O)CC2)CC1 [GSK1904529A] |  |  | 0.8 | 0.7 | 
CCN(CC)CCCC(C)Nc1nc(C)cc(Nc2ccc3nc(C)cc(N)c3c2)n1 (stereo not drawn) [NSC 23766] |  |  | 0.0 | -2.2 | 
CCC(=O)N1CCN(c2ccc(-n3c(=O)ccc4cnc5ccc(-c6cnc7ccccc7c6)cc5c43)cc2C(F)(F)F)CC1 [Torin 1] | -0.2 | 3.1 |  |  | 
O=C1NC(=O)/C(=C/c2ccc(-c3ccc(F)cc3O)o2)S1 [AS-252424] |  |  | -0.1 | 3.0 | 
O=C(Nc1cc(C(F)(F)F)cc(C(F)(F)F)c1)c1cc(Cl)ccc1O [IMD 0354] | -0.6 | 1.4 |  |  | 
Nc1ncnc2c1c(-c1cnc3[nH]ccc3c1)nn2C1CCCC1 [PP121] |  |  | 3.6 | 2.7 | 
COCCOc1ccc2c(c1)ncn2-c1ccc2cccc(N3CCC(N)CC3)c2n1 [CP-673451] | 0.9 | 1.9 |  |  | 
Cn1cc(-c2ccc3nnc(C(F)(F)c4ccc5ncccc5c4)n3n2)cn1 [JNJ-38877605] |  |  | -0.1 | -0.2 | 

Compound | ΔTm at 10 µM (LIMK1KD) [°C] | ΔTm at 10 µM (LIMK2KD; [1]) [°C] | TM Shift LIMK1 (K) (LIMK1KD) | TM Shift LIMK2 (K) (LIMK2KD; [2]) | further results
C[C@@H](N)[C@H]1CC[C@H](C(=O)Nc2ccncc2)CC1.Cl.Cl [Y-27632 2HCl] |  |  | -0.7 | 0.9 | 
COc1cc2nccc(Oc3ccc(NC(=O)Nc4cc(C)on4)c(Cl)c3)c2cc1OC [Tivozanib (AV-951), Tivozanib] | 1.1 | 1.5 |  |  | 
Cc1[nH]c(/C=C2\C(=O)Nc3ccccc32)c(C)c1CCC(=O)O [Orantinib] | 1.9 |  |  |  | TM Shift LIMK1 (K) (LIMK1KD; listed as TSU-68 (SU6668, Orantinib)): 1.7 K; TM Shift LIMK2 (K) (LIMK2KD; [3]): 1.0 K; TM Shift LIMK2 (K) (LIMK2KD; LIMK2KD, compound 10 µM, single shot, listed as TSU-68 (SU6668, Orantinib), 10 µM): 2.8 K
Cc1cc(Nc2cc(CN3CCOCC3)c3nc(C)c(Cc4ccc(Cl)cc4F)n3n2)n[nH]1 [Gandotinib] |  |  | 5.4 |  | TM Shift LIMK2 (K) (LIMK2KD; LIMK2KD, compound 10 µM, single shot, listed as gandotinib, 10 µM): −0.5 K
COc1ccc(F)c(F)c1C(=O)c1cnc(NC2CCN(S(C)(=O)=O)CC2)nc1N [R547] |  |  | 0.1 | -0.2 | 
CS(=O)(=O)c1cccc(CNc2nc(Nc3ccc4c(c3)CCC(=O)N4)ncc2C(F)(F)F)c1 [PF-573228] |  |  | 1.0 | 0.7 | 
O=C(O)c1ccc(Nc2ncc3c(n2)-c2ccc(Cl)cc2C(c2c(F)cccc2F)=NC3)cc1 [MLN8054] | -0.4 | 1 |  |  | 
FC(F)(F)c1ccc(/C=C/c2nc(COc3ccc(CCCCn4ccnn4)cc3)co2)cc1 [Mubritinib (TAK 165), Mubritinib] | 0.6 | -0.4 |  |  | 
CCO.N#CC(=C(/N)Sc1ccccc1N)/C(C#N)=C(\N)Sc1ccccc1N [U0126-EtOH] |  |  | -1.1 | 2.4 | 
O=c1cc(N2CCOCC2)oc2c(-c3ccccc3)cccc12 [LY294002] | 0 | 0.4 |  |  | 
COc1cc2ncnc(Nc3ccc(Cl)cc3F)c2cc1OC [ZM 306416] |  |  | 0.4 | 1.8 | 
Cc1cc(Nc2nc(N[C@@H](C)c3ccc(F)cc3)c(C#N)cc2F)[nH]n1 [AZ 960] | 6 | 0.1 |  |  | 
WYE-354 |  |  | 0.2 | 4.1 | 
Cc1ccc(F)c(NC(=O)Nc2ccc(-c3cccc4[nH]nc(N)c34)cc2)c1 [Linifanib] | 2 | 5 |  |  | 
O=C(c1ccc(/C=C/c2n[nH]c3ccccc23)cc1)N1CCNCC1 [KW-2449] | 1.7 | 0.8 |  |  | 
O=C1Nc2ccccc2/C1=C1/Nc2ccccc2C1=O [Indirubin] | 1.4 | 2.6 |  |  | 
NC(=O)c1cnc(N[C@@H]2CCCC[C@@H]2N)nc1Nc1cccc(-n2nccn2)c1 [PRT062607 (P505-15, BIIB057) HCl] | -0.6 | -1 |  |  | 
O=C(Cc1ccc(-c2ccc(OCCN3CCOCC3)cc2)cn1)NCc1ccccc1 [KX2-391] |  |  | 1.7 | -0.3 | 
